Test results taken from a melting point compilation (Tetko et al.; mined from patent text by program, amines drawn as free bases though some values may be those of a salt).

Row | melting point | SMILES
1 | 235 to 237 °C | NC(=O)C(=O)Nc1nc(-c2oncc2-c2c(F)cccc2Cl)cs1
2 | 141 to 142 °C | Cc1cc(SCc2ccc(OCc3ccc(OC(F)(F)F)cc3)cc2)ccc1OCC(=O)O
3 | 166 °C | CC(=O)OC1CSC(Oc2cncc(-c3c(C)nn(C)c3C)c2)C(OC(C)=O)C1OC(C)=O (stereo not drawn)
4 | 233 °C | O=C(Oc1ccc2c(OC(=O)c3ccc(O)c(O)c3)c3cc(OC(=O)c4ccc(O)c(O)c4)ccc3cc2c1)c1ccc(O)c(O)c1
5 | 213 to 214 °C | Cc1nc2c(OCc3ccccc3)cc(CO)cc2n1C
6 | 143 to 145 °C | Cc1ccc(C)n1-c1ccc(/C=C/C(=O)N(C)O)cc1
7 | 118 to 119 °C | CCOC(=O)N1Cc2ccccc2C(Oc2ccc([N+](=O)[O-])cc2)C1 (stereo not drawn)
8 | 60 °C | CC(C(=O)CCl)c1cccc(C(=O)c2ccccc2)c1 (stereo not drawn)
9 | 178 °C | O=C(NCc1ccncc1)Nc1cccc2ccccc12
10 | > 250 °C | Nc1nc2ccccc2c2c1nc(O)n2Cc1cccnc1
11 | 99 to 101 °C | CCCCCCCCCCCCCCCCCCOc1cc(OCCCOc2ccc(C(C)(C)C)cc2)cc(N(CC(=O)O)CC(=O)O)c1
12 | 102 to 105 °C | CC(=O)C(=Cc1ccc(S(=O)(=O)c2ccccc2)cc1)C(C)=O
13 | 238 °C | O=C(NC(Cc1ccc(OCc2ccccc2)cc1)C(=O)O)c1cn2cc(-c3ccccc3F)ccc2n1 (stereo not drawn)
14 | 152 to 156 °C | c1cc(Nc2ccc(-n3cccc3)cn2)cc(-n2ccnc2)c1
15 | 76 to 78 °C | C=CCON=C(C)c1cccc(Oc2nc(OC)cc(OC)n2)c1C(=O)OC
16 | 140 to 142 °C | O=C(C1CCCCC1)N(CCN1CCN(CC(O)c2ccccc2)CC1)c1ccccn1 (stereo not drawn)
17 | 84 to 86 °C | CCOC(=O)c1c(CC)ncnc1NCCc1ccc(CCOS(C)(=O)=O)cc1
18 | 158 to 159 °C | FC(F)(F)C(c1ccccc1)(c1ccccc1)c1ccccc1
19 | 235 to 238 °C | Cc1noc(CCc2c(-c3ccccc3)c(=O)[nH]c3cc(Cl)ccc23)n1
20 | 137 to 138 °C | C#CCOc1cc(NN=C2CCCCN2C(=O)OC)c(Cl)cc1Cl
21 | 234 to 236 °C | COc1cc2c(cc1Cl)CC(=O)NN=C2c1ccc(N)cc1
22 | 93 °C | CN(C)c1n[nH]c(=O)n1N(C)C
23 | 225 to 227 °C | CC(C)(C)c1ccc(/C=C/C(=O)Nc2ccc3c(c2)NCCC3)cc1

Row | melting point | SMILES
24 | 173 to 176 °C | COc1ccc(N2c3ccccc3Sc3ccccc32)cc1
25 | 135 to 137 °C | O=C(O)Cc1cccc(Cn2cc(C3c4ccccc4C=Cc4ccccc43)c(=S)[nH]c2=O)c1
26 | 129 to 131 °C | N#CSCc1ccc(C(=O)c2ccc(Cl)cc2)cc1
27 | 124 to 125 °C | Cc1ccc(S(=O)(=O)OCC2COc3cc(Cl)c(Cl)cc3O2)cc1 (stereo not drawn)
28 | 242 to 244 °C | CCCCc1nc2c(N)nc3cccnc3c2n1CCCCNC(=O)Cn1cc(C)c(O)nc1=O
29 | 179 to 180 °C | CC(C)(C)c1nc(S(C)(=O)=O)n(-c2c(Cl)cc(Cl)cc2Cl)n1
30 | 152 to 153 °C | OC(COc1cccc(-c2cc[nH]n2)c1)CN1CCN(c2ccc(Cl)cc2)CC1 (stereo not drawn)
31 | 118 to 121 °C | O=C(Nc1ccc(S(=O)(=O)C(F)(F)F)cc1)Nn1cnc2ccccc2c1=O
32 | 246 to 249 °C | COC(=O)CS(=O)(=O)c1ccc(N2CCN(c3ccc(C#N)cc3)C2=O)cc1
33 | 162 to 164 °C | CCCNC(=O)c1ccc(-c2ccc3nnn(C(C)(C)c4ccc5ncccc5c4)c3n2)cc1F
34 | 160 °C | O=C(NC1Cc2ccccc2C1)C(F)(F)F
35 | 134 to 136 °C | CCCCCC(=O)c1cccc(NC(=O)c2ccc(Cl)cc2O)c1
36 | 126 to 129 °C | CC1=C(c2ccc(O)cc2)C(=O)c2c(O)cc(O)cc21
37 | 66 to 69 °C | OCC1NCCc2occc21 (stereo not drawn)
38 | 90 to 93 °C | Cc1cccc2c1CCC2NC(=S)NCCO (stereo not drawn)
39 | 161 to 163 °C | CC(C)(C)OC(=O)COC1CCN(C(=O)CC(=O)Nc2ccc(C(N)=NO)cc2)CC1
40 | 135 °C | Cc1cccc(NC(=O)NCC(=O)N(CC(=O)OC(C)(C)C)c2cccc(Cl)c2Cl)c1
41 | 237 to 238 °C | NS(=O)(=O)c1ccc(N2CC(=O)N(C3CCCCC3)C2=O)cc1
42 | 95 to 97 °C | CCc1cnc2c(c1)C=Cc1cccnc1N2
43 | 246 to 248 °C | CC(=O)N(C)c1ccc2sc3ccccc3c(=O)c2c1
44 | 133 to 134 °C | N#CN=C(Nc1ccc(Cl)nc1)Oc1ccccc1
45 | 125 °C | O=C(CCCCCS(=O)c1ccc(Cl)cc1)NO (stereo not drawn)
46 | 147 to 151 °C | CN(C)S(=O)(=O)c1cc(-c2csc(=Nc3ccc(C(F)(F)F)cc3)n2C)ccc1Cl

Row | melting point | SMILES
47 | 182 to 183 °C | Cc1c(C)c2c(c(C)c1O)CCC(C)(C(=O)N1CC(Oc3ccc(NC(=O)OC(C)(C)C)cc3)C1)O2 (stereo not drawn)
48 | 219 to 220 °C | Cc1c(C=O)c2cc(F)ccc2n1-c1ccc(OCc2ccccc2)cc1
49 | 181 °C | COc1ccc(C(=C2CN(C(c3ccccc3)c3ccccc3)C2)S(C)(=O)=O)cc1
50 | 88 °C | CCN(CC)C(=O)c1cc(-c2ccc(OC)cc2)c2ccsc2c1
51 | 220 to 222 °C | CCCNC(=O)N(C)Cc1cccc2c1CN(C1CCC(=O)NC1=O)C2=O (stereo not drawn)
52 | 139 to 140 °C | CCCC(O)C1(c2onc(-c3ccc(O)cc3)c2-c2ccccc2)CC1 (stereo not drawn)
53 | 157 to 158 °C | CCc1cc([N+](=O)[O-])c(=O)[nH]c1COCc1ccccc1
54 | 113 to 114 °C | COCCNC(=O)c1cccc(-c2cccc3cc(Cc4cccc(C(F)(F)F)c4)sc23)c1
55 | 79 to 81 °C | C=C[C@@H]1Oc2ccccc2[C@H]1CC(=O)O (relative stereo)
56 | 120 °C | CCOC(=O)Nc1cccc(C(=O)Nc2ccc3ccc(OC)nc3n2)c1
57 | 167 to 170 °C | O=C(O)c1cccc(Cn2cc(C3c4ccccc4C=Cc4ccccc43)c(=S)[nH]c2=S)c1
58 | 158 to 160 °C | CC(C)(C)c1ccc(C(CO)NC(=O)c2c(F)c(F)cc(F)c2F)cc1 (stereo not drawn)
59 | 186 to 187 °C | Cc1ccccc1C(=O)NC(NC(=S)Nc1cccnc1)C(C)(C)C (stereo not drawn)
60 | 253 to 255 °C | O=C(O)C1=Cc2cc(Cl)c(Oc3ccc4cc(Br)ccc4c3)cc2OC1C(F)(F)F (stereo not drawn)
61 | 260 °C | CC(=O)C1=C(O)C(=C(C)Nc2cc(NS(C)(=O)=O)cc(NS(C)(=O)=O)c2)C(=O)OC1=O
62 | 37 to 38 °C | CC(=O)SCSc1cnnn1C
63 | 148 to 149 °C | COCCOC1CC(c2ccccc2)Oc2c1ccc1c2nc(C)n1C (stereo not drawn)
64 | 128 to 132 °C | NC(=C[N+](=O)[O-])NC1=CC2CCC1C2 (stereo not drawn)
65 | 270 to 273 °C | CCCn1c(=O)c2[nH]c(-c3cc(C)n(CC(=O)Nc4ccc(Br)cc4)n3)nc2n(CCC)c1=O
66 | 166 to 168 °C | CC(=O)n1nc(S(=O)(=O)Cl)nc1N
67 | 91 to 93 °C | CC(=O)NCCN1CCc2ccc3c(c21)CCCO3
68 | 170 to 172 °C | NC(=O)N1CCC(Oc2c(F)c(F)c(F)c(F)c2F)CC1
69 | 44 to 45 °C | CCOC(=O)CC(=O)c1cc(F)c(Cl)cc1Cl

Row | melting point | SMILES
70 | 103 to 105 °C | CCCCCC(=O)OC1(c2nc(OC)cc(OC)n2)OC(=O)c2c(Cl)ccc(Cl)c21 (stereo not drawn)
71 | 277 to 279 °C | NC1=NC(=O)N(c2ccccc2)C1
72 | 176 °C | N#Cc1ccc(OCC(NNC(=O)Nc2ccc(OC(F)(F)F)cc2)c2ccccc2)cc1 (stereo not drawn)
73 | 163 to 165 °C | COc1ccc(C(=O)N2CCN(c3c(C)c(C)c4c(c3C)C(c3ccc(C)cc3)C(C)(C)O4)CC2)cc1 (stereo not drawn)
74 | 210 °C | Cc1ccc2c(c1)c1c(n2Cc2ccc(F)cc2)CCCC1=O
75 | 184 to 185 °C | CCOC(=O)c1cc(=NS(=O)(=O)c2ccccc2)c2c(Cl)cc(Cl)cc2[nH]1
76 | 113 to 116 °C | CCOC(=O)c1cc2c3ccccc3nc(C)n2c1
77 | > 240 °C | Cc1cc(C(=O)O)cc2c1[nH]c1ccccc12
78 | 255 to 257 °C | Cc1nc(=O)n(-c2cc(C(=O)OC(C)C)c(Cl)cc2F)c(N)c1C#N
79 | 52 °C | COC(=O)c1ccc2c(c1)OCC2(C)Cc1ccccc1 (stereo not drawn)
80 | 278 to 280 °C | O=c1[nH]c(=O)n2c3c(cccc13)Sc1ccc(C(F)(F)F)cc1-2
81 | 115 °C | CC(C)Cc1ccc(C(C)COC(=O)c2cc(O)c3c(c2)C(=O)c2cccc(O)c2C3=O)cc1 (stereo not drawn)
82 | 179 °C | CC(=O)c1ccccc1NC(C#N)c1c(Cl)cccc1Cl (stereo not drawn)
83 | 73 to 74 °C | CN(CCOc1ccc(CO)cc1)c1ncccn1
84 | 100 to 102 °C | COCCOC(=O)Nc1cccc(C)c1CCl
85 | 198 °C | CCc1ccc2c(c1)cc(C(=O)Nc1nc(-c3c(OC)cc(C)cc3OC)n(CCC3CCCCC3)n1)n2CC(=O)O
86 | 54 °C | CCCOC(=O)c1ccc(OCCCCCCCc2cc(C)no2)cc1
87 | 149 to 151 °C | O=C(O)C(O)N1C(=O)CCN1c1ccc(Cl)cc1 (stereo not drawn)
88 | 103 to 104 °C | CC(=O)O[C@H]1C[C@@H](n2cnc3c(Cl)ncnc32)[C@H](O)[C@@H]1O (racemic)
89 | > 230 °C | C=CCn1c(=S)n(C2OC(CO)C(O)C2O)c2nc(N)[nH]c(=O)c21 (stereo not drawn)
90 | 262 to 266 °C | COc1cc2c(c3c1OC(C)(C)C3)C(c1ccc(=O)n(Cc3ccc(C(N)=O)cc3)c1)=NC(C)(C)C2
91 | 137 to 139 °C | N#CN1CCC(c2nn(-c3ccccc3)c3ccc(F)cc23)CC1
92 | 167 to 168 °C | COC(=O)c1nc2cccc(C)c2c(O)c1C(=O)OC

Row | SMILES | melting point
93 | Cn1c(CC(C)(C)C(=O)O)c(C(=O)c2ccc(Cl)cc2)c2ccc(OCc3ccc4ccccc4n3)cc21 | 203 to 205 °C
94 | COC(=O)Cc1ccc(CNC(=O)[C@@H](CCCNC(N)=N[N+](=O)[O-])NC(=O)C(c2ccccc2)c2ccccc2)cc1 | 158 to 160 °C
95 | CN1CCC(c2c[nH]c3ccc(N)cc23)C(F)C1 (stereo not drawn) | 105 to 107 °C
96 | CC(=O)OC1=CC2=CCC3C(C(F)CC4(C)C(=O)CCC34)C2CC1 (stereo not drawn) | 175 to 177 °C
97 | CSc1c(C#N)nn(-c2c(Cl)cc(C(F)(F)F)cc2Cl)c1N | 147 to 148 °C
98 | CC(=O)Nc1ccc(S(=O)(=O)N(CCCl)CCCl)cc1 | 113 to 114 °C
